The source of these data is PMC4791264, “Characterization and bioactivity of novel calcium antagonists - N-methoxy-benzyl haloperidol quaternary ammonium salt” (Oncotarget, 2015).

One series concerns rat myocardiocytes. The series is described as follows: Inhibition of KCl-induced extracellular calcium influx (Fluo-3 fluorescence, confocal microscopy). The class given is cell-based. The settings on record: 60 mM KCl; for reduction of Ca^2+ fluorescent intensity, maximum degree: 0.1–10 μM. How it is done:
Fluorescence intensity of Ca^2+ in myocardial cell was determined by laser scanning confocal microscopy (ACAS/ULTIMA312, Meridian Instruments) as previously described. Rat myocardiocytes were grown on 24-mm glass coverslips in 6-well plates in DMEM containing 10% FBS. After 24 h, the cells were incubated with Fluo 3-AM (20 μM) for 60 min in the dark at 37°C. Then, the cells were washed with HBSS three times to remove extracellular Fluo 3-AM. HBSS (HEPES-buffered physiological saline solution) contains 130 mM NaCl, 2.5 mM KCl, 1.2 mM MgCl2, 10 mM HEPES, 10 mM glucose, and 2 mM CaCl2, pH 7.4 (adjusted with NaOH). […] KCl was added into the cultured cells to induce the influx of extracellular Ca^2+ in HBSS and changes in fluorescence were recorded. Myocardiocytes were incubated for 30 min with 0.1, 1, and 10 μM compounds before adding KCl. Effect of compounds on KCl-induced changes in fluorescence was investigated.

For series [1], the system named is SD rats. Briefly: Effect on rat hemodynamics (left ventricular pressure, heart rate). The note with it: anesthetized SD rats, 3 min after administration.
Series [2] concerns the target T1, L-type calcium channels in rat ventricular myocytes (Rattus norvegicus, UniProt P0DP29+P22002).
T1 construct: reduced the amplitude of the L-type calcium current in rat myocardiocytes; endogenous in cells; host or cells: rat ventricular myocytes (single cells)
The series is described as follows: Inhibition of L-type calcium current (patch-clamp). The settings on record: 0.1 to 10 μM, rat myocardiocytes. The class given is cell-based. On the technique in general: The patch-clamp technique gives a direct electrical read-out from membranes.

The test system of the next series is H9c2 cell (Cacnalc−/−). Briefly: LDH in culture medium under hypoxia/reoxygenation, H9c2 (Cacnalc−/−) cells. The class given is cell-based. The settings on record: 1 × 10^−6 mol/L. Here is the method: (§1) Myocardiocytes H9c2 cell and the one which the L-type calcium channel gene was knock-out, the […]-/-) were incubated separately in culture plates. When cell confluence reached 85%, the cells were incubated for another 12 hours in DMEM medium with 0.5% FBS. Then cells were randomly divided into 6 groups, namely the control group, H/R group, DMSO group, H/R+X1(1 × 10^-6 mol/L) group, H/R+X2 (1 × 10^-6 mol/L) group and H/R+X3 (1 × 10^-6 mol/L) group. The hypoxic DMEM culture medium and reoxygenation medium were used in H/R process. The final volume was 500 uL. The compounds (X1, X2, X3) were administered continuously during the hypoxia/reoxygenation process. Finally, cell supernatant was collected and LDH was measured by colorimetric method according to the Kit instruction by manufacturer (Nanjin Jiancheng Lit. China).

Series [3] concerns SD rats. The note with it: rat, in vivo.
Series [4] concerns isolated rat thoracic aortic rings. Briefly: Vasodilation on KCl (60 mM)-contracted isolated rat thoracic aortic rings. The note with it: KCl (60 mM)-induced contraction of rat aortic rings; 0.1 to 10 μM. Here is the method: The vasodilation activity of compounds was evaluated in isolated rat thoracic aortic rings according to the methods of Greenwood and Polster et al. The aortic rings were allowed to equilibrate in Krebs bicarbonate solution ((PSS), containing118.0 mM NaCl, 4.7 mM KCl, 1.2 mM KH2PO4, 1.2 mM MgSO4.7H2O, 5.0 mM glucose, 25.0 mM NaHCO3, and 2.5 mM CaCl2.7H2O at 37°C and were gassed with 95% O2 and 5% CO2 for 90 min at a testing tension. KCl (60 mM) was used to depolarize the aortic rings. When the amplitude of the contraction reached a plateau, compounds X1, X2, X3 were added. Cumulative concentration-response curves to all compounds were determined in the absence and presence of endothelium. Using tips of forceps, the endothelium was mechanically removed from some rings by gently rubbing the lumen, if absence of endothelium is needed. Acetylcholine was used to confirm the removal of endothelium from the aortic rings.

The next series relates to H9c2 cell. The series is described as follows: LDH in culture medium under hypoxia/reoxygenation, H9c2 cells. The settings on record: 1 × 10^−6 mol/L, vs H/R group (p < 0.01). The class given is cell-based. Here is the method:
as §1

Like-named read-outs stand apart in the source and are kept apart here.

`COc1ccc(CCN(C)CCCC(C#N)(c2ccc(OC)c(OC)c2)C(C)C)cc1OC` (stereo not shown) [Ver, verapamil]: the “reduction of Ca^2+ fluorescence intensities” value in the series with rat myocardiocytes (10 μM, positive control) is 86%. Moreover, in the series on SD rats [1] (0.25 mg/kg), the “+LVdp/dtmax” value was 1022.49 ± 130.44, the HR was determined as 328 ± 28, the LVEDP was 25.39 ± 7.45 and the LVSP was 132.24 ± 12.74. The “−LVdp/dtmax” value in the series with SD rats [1] (0.25 mg/kg) is on record as 932.24 ± 95.54. Moreover, in the series with SD rats [1] (0.5 mg/kg), the “+LVdp/dtmax” value is 925.38 ± 172.37, the HR was determined as 302 ± 77, the LVEDP stood at 38.21 ± 8.18 and the LVSP is recorded as 112.74 ± 21.08. The “−LVdp/dtmax” value in the series with SD rats [1] (0.5 mg/kg) is given as 699.87 ± 91.11. In addition, in the series with SD rats [1] (1 mg/kg), the “+LVdp/dtmax” value is 885.32 ± 122.21, the HR is given as 298 ± 41, the LVEDP was found to be 42.21 ± 6.23 and the LVSP came to 102.21 ± 14.21. The “−LVdp/dtmax” value in the series on SD rats [1] (1 mg/kg) is listed as 657.80 ± 85.55.
`COc1ccc([C@@H]2Sc3ccccc3N(CCN(C)C)C(=O)[C@@H]2OC(C)=O)cc1` [Dil, diltiazem]: in the series on SD rats [1] (0.25 mg/kg), the “+LVdp/dtmax” value is given as 1099.22 ± 142.66, the HR came out at 322 ± 25, the LVEDP is given as 30.21 ± 3.99 and the LVSP is reported as 138.54 ± 21.35. The “−LVdp/dtmax” value in the series on SD rats [1] (0.25 mg/kg) amounted to 787.25 ± 74.25. Also, in the series with SD rats [1] (0.5 mg/kg), the “+LVdp/dtmax” value stood at 922.11 ± 129.44, the HR was 321 ± 29, the LVEDP was found to be 33.26 ± 4.26 and the LVSP is on record as 130.25 ± 17.33. The “−LVdp/dtmax” value in the series with SD rats [1] (0.5 mg/kg) amounted to 689.76 ± 77.62. In the series on SD rats [1] (1 mg/kg), the “+LVdp/dtmax” value turned out to be 899.08 ± 128.32, the HR stood at 304 ± 47, the LVEDP came to 38.51 ± 7.45 and the LVSP is on record as 127.55 ± 21.23. The “−LVdp/dtmax” value in the series with SD rats [1] (1 mg/kg) was determined as 622.94 ± 84.42.
Regarding `COc1ccc(C[N+]2(CCCC(=O)c3ccc(F)cc3)CCC(O)(c3ccc(Cl)cc3)CC2)cc1` (stereo not shown) [Compound X1], in the series on rat myocardiocytes, the “reduction of Ca^2+ fluorescent intensity, maximum degree” value (shortened to “reduction … maximum degree”) turned out to be 76.5%. In addition, in series [2], the “maximum inhibition rate of L-type calcium current” value came to 97.2%. The figures for the half-inhibitory concentration (IC50) in series [2] and in series [4] were 472 nM and 432 nM, respectively. The “LDH under H/R” value with H9c2 cell (Cacnalc−/−) is on record as “remained unchanged”; in the series on H9c2 cell, “decreased”. The HR was 355 ± 61 in the series on SD rats [1] (0.25 mg/kg), 356 ± 55 in the series with SD rats [1] (0.5 mg/kg) and 342 ± 51 in the series on SD rats [1] (1 mg/kg). Further, the LVEDP in the series on SD rats [1] (0.25 mg/kg) is on record as 20.34 ± 3.06; in the series on SD rats [1] (0.5 mg/kg) it was 21.02 ± 3.08; with SD rats [1] (1 mg/kg) it was 29.66 ± 4.33. Besides, the LVSP with SD rats [1] (0.25 mg/kg) is on record as 145.32 ± 20.08; in the series with SD rats [1] (0.5 mg/kg) it was 145.38 ± 18.06; in the series with SD rats [1] (1 mg/kg), 132.32 ± 18.66. Also, the entries for the “+LVdp/dtmax” value in the series with SD rats [3] (0.25 mg/kg), in the series on SD rats [3] (0.5 mg/kg) and with SD rats [3] (1 mg/kg) were 1043.01 ± 143.24, 1011.02 ± 152.04 and 946.02 ± 132.23, respectively. In addition, the figures for the “−LVdp/dtmax” value in the series with SD rats [3] (0.25 mg/kg), in the series on SD rats [3] (0.5 mg/kg) and with SD rats [3] (1 mg/kg) were 899.04 ± 142.24, 908.21 ± 151.02 and 884.82 ± 148.09, respectively. Moreover, the “maximum inhibition on the vascular ring contraction” value in series [4] is listed as 92.5%.
As for `COc1cccc(C[N+]2(CCCC(=O)c3ccc(F)cc3)CCC(O)(c3ccc(Cl)cc3)CC2)c1` (stereo not shown) [Compound X2], in the series on rat myocardiocytes, the “reduction … maximum degree” value is reported as 53.6%. The “maximum inhibition rate of L-type calcium current” value in series [2] was found to be 82.8%. The values for the IC50 in series [2] and in series [4] were 493 nM and 4220 nM, respectively. Further, the “LDH under H/R” value in the series on H9c2 cell (Cacnalc−/−) was “remained unchanged”; in the series with H9c2 cell, “decreased”. Moreover, the results for the HR in the series with SD rats [1] (0.25 mg/kg), in the series with SD rats [1] (0.5 mg/kg) and with SD rats [1] (1 mg/kg) were 365 ± 59, 362 ± 63 and 356 ± 53, respectively. Also, the LVEDP in the series on SD rats [1] (0.25 mg/kg) came to 22.12 ± 3.76; in the series with SD rats [1] (0.5 mg/kg) it was 22.08 ± 3.44; in the series with SD rats [1] (1 mg/kg), 26.93 ± 3.26. For the same compound, the LVSP in the series on SD rats [1] (0.25 mg/kg) stood at 145.98 ± 16.42; with SD rats [1] (0.5 mg/kg) it was 146.66 ± 18.04; with SD rats [1] (1 mg/kg) it was 138.94 ± 16.06. The figures for the “+LVdp/dtmax” value in the series with SD rats [3] (0.25 mg/kg), with SD rats [3] (0.5 mg/kg) and with SD rats [3] (1 mg/kg) were 1029.32 ± 144.08, 1022.14 ± 142.21 and 902.89 ± 138.88, respectively. Besides, the “−LVdp/dtmax” value in the series with SD rats [3] (0.25 mg/kg) was 982.13 ± 154.56; in the series with SD rats [3] (0.5 mg/kg), 984.12 ± 144.32; with SD rats [3] (1 mg/kg) it was 955.23 ± 146.08. In addition, the “maximum inhibition on the vascular ring contraction” value in series [4] is on record as 67.08%.
With `COc1ccccc1C[N+]1(CCCC(=O)c2ccc(F)cc2)CCC(O)(c2ccc(Cl)cc2)CC1` (stereo not shown) [Compound X3], the “reduction … maximum degree” value in the series on rat myocardiocytes is given as 24.53%. Further, the “maximum inhibition rate of L-type calcium current” value in series [2] came to 70.2%. Besides, the IC50 in series [2] came out at 721 nM; in series [4] it was 7420 nM. The “LDH under H/R” value in the series on H9c2 cell (Cacnalc−/−) is listed as “remained unchanged”; in the series on H9c2 cell, “decreased”. The values for the HR in the series with SD rats [1] (0.25 mg/kg), in the series on SD rats [1] (0.5 mg/kg) and with SD rats [1] (1 mg/kg) were 358 ± 52, 362 ± 55 and 368 ± 54, respectively. Further, the figures for the LVEDP with SD rats [1] (0.25 mg/kg), in the series with SD rats [1] (0.5 mg/kg) and in the series with SD rats [1] (1 mg/kg) were 23.86 ± 3.65, 24.91 ± 3.07 and 23.69 ± 3.77, respectively. In addition, the figures for the LVSP with SD rats [1] (0.25 mg/kg), in the series on SD rats [1] (0.5 mg/kg) and with SD rats [1] (1 mg/kg) were 142.94 ± 18.08, 148.98 ± 20.02 and 152.88 ± 21.04, respectively. Besides, the results for the “+LVdp/dtmax” value in the series on SD rats [3] (0.25 mg/kg), with SD rats [3] (0.5 mg/kg) and with SD rats [3] (1 mg/kg) were 1129.28 ± 162.26, 1221.12 ± 170.02 and 1248.36 ± 182.32, respectively. Besides, the “−LVdp/dtmax” value in the series with SD rats [3] (0.25 mg/kg) came to 989.92 ± 161.23; in the series on SD rats [3] (0.5 mg/kg) it was 1021.23 ± 153.77; with SD rats [3] (1 mg/kg) it was 1022.15 ± 162.24. For the same compound, in series [4], the “maximum inhibition on the vascular ring contraction” value is 48.66%.
Turning to `COC(=O)C1=C(C)NC(C)=C(C(=O)OC)C1c1ccccc1[N+](=O)[O-]` [Nif, nifedipine], in the series on SD rats [1] (0.25 mg/kg), the HR is listed as 372 ± 29, the LVEDP is 29.33 ± 5.56 and the LVSP stood at 137.21 ± 18.26. In addition, in the series on SD rats [1] (0.5 mg/kg), the HR is 397 ± 73, the LVEDP was 33.64 ± 8.12 and the LVSP is 132.11 ± 11.10. In the series on SD rats [1] (1 mg/kg), this compound yielded an HR of 311 ± 54, an LVEDP of 45.50 ± 6.43 and an LVSP of 105.00 ± 12.23.

A word on the IC50: it is the concentration needed to halve the response being measured.
